Test results taken from paper PMC7335187, “Super-assembly of ER-phagy receptor Atg40 induces local ER remodeling at contacts with forming autophagosomal membranes” (Nature Communications, 2020).
Where a SMILES comes first, the peptide text is derived from it.

Experiments:
Format in all cases: binding
[1] = target: GABARAPL2 WT (Homo sapiens, UniProt P60520); assay: ITC of peptides with GABARAPL2; conditions: 25 °C, 0.5 mM peptide in syringe, GABARAPL2 WT in cell 10 times lower, single-site model, ± fitting error
Method: (§1) Some of peptides (Supplementary Table 4) and all proteins except Atg40-6His were expressed in E. coli BL21 (DE3). Bacteria were cultured at 37 °C until OD600 became 0.8–1.0 and further cultured at 16 °C with 100 μM IPTG overnight. After centrifugation, the pellets were resuspended with 20 ml PBS with 0.5 mM EDTA and lysed by sonication for 10 min. After centrifugation, the supernatants were incubated with GST-accept resin (Nacalai tesque). After three times wash by PBS, the proteins were eluted with glutathione buffer (10 mM glutathione and 50 mM Tris pH 8.0). The buffer of the eluates was exchanged with PBS by a Bio-Scale Mini BioGel P-6 desalting column (Bio-Rad). After incubation with GST-fused HRV 3 C protease at 4 °C overnight, the samples were subjected to a GST-accept resin column to remove excised GST and the protease. RTN3^245–264-GABARAP was purified by cation-exchange chromatography using CM Sepharose FF column (GE Healthcare) with 500 mM MES pH 6.0 as buffer B and 50 mM MES pH 6.0 and 1 M NaCl as buffer C. The samples were further subjected to size-exclusion chromatography with 20 mM HEPES pH 6.8, 150 mM sodium chloride except for mCherry-Atg8-CC^tetramer (20 mM HEPES pH 6.8, 500 mM sodium chloride) using a Superdex 75 10/300 or Superdex 200 26/60 column. […]

[2] = target: LC3B WT (Rattus norvegicus, UniProt Q62625); assay: ITC of peptides with LC3B; conditions: 25 °C, 0.5 mM peptide in syringe, LC3B WT in cell 10 times lower, single-site model, ± fitting error
Text: (§2) All plasmids for expression of recombinant proteins and peptides in bacteria were based on a pGEX6P-1 vector (GE Healthcare). Construction of pGEX6P-ScAtg8 (1-116) K26P and pGEX6P-rat LC3B (1-120) was previously described[35],[47]. All mutations were generated by PCR-based mutagenesis. The genes were amplified by PCR and inserted downstream of the HRV 3C protease recognition site by NEBuilder HiFi DNA Assembly Master Mix (New England Biolabs) except for that encoding human GABARAP (1-116), which was inserted using restriction enzymes for the NdeI and BamHI sites. Plasmids for expression of fusion proteins for crystallization were constructed by inserting the genes encoding Atg40^237–252, human FAM134B^450–468, human SEC62^361–376 with the T367D mutation, and human RTN3^245–264 isoform e into upstream of the sequence encoding Atg8 K26P of pGEX6P-Atg8 (the K26P mutation was introduced for stabilizing Atg8) or upstream of the sequence encoding GABARAP of pGEX6P-GABARAP (with the F3S V4T mutations for enhancing crystallization). For phase-separation experiments, the mCherry and BNDL1[25],[26] sequences were inserted into upstream and downstream of the ATG8 gene in pGEX6P-Atg8 K26P, respectively. pGEX-SNAP-40C was constructed by the removal of the HRV 3C protease recognition site and the insertion of the SNAP sequence from pSNAP-tag(T7) vector (New England Biolabs) with a linker (Gly–Gly–Gly–Ser–Gly–Gly–Gly) and Atg40^194–256 following a linker (Ser–Ala–Ser–Ser) to upstream and downstream of GST in pGEX6P-1 vector, respectively. In the construction of plasmids for peptide production, a Tyr residue was attached to their C termini for enabling the quantification by absorbance at 280 nm (Supplementary Table 4).
(§3) Some of peptides (Supplementary Table 4) and all proteins except Atg40-6His were expressed in E. coli BL21 (DE3). Bacteria were cultured at 37 °C until OD600 became 0.8–1.0 and further cultured at 16 °C with 100 μM IPTG overnight. After centrifugation, the pellets were resuspended with 20 ml PBS with 0.5 mM EDTA and lysed by sonication for 10 min. […]

[3] = target: GABARAPL1 WT (Homo sapiens, UniProt Q9H0R8); assay: ITC of peptides with GABARAPL1; conditions: 25 °C, 0.5 mM peptide in syringe, GABARAPL1 WT in cell 10 times lower, single-site model, ± fitting error
Method: as §1

[4] = target: LC3A WT (Homo sapiens, UniProt Q9H492); assay: ITC of peptides with LC3A; conditions: 25 °C, 0.5 mM peptide in syringe, LC3A WT in cell 10 times lower, single-site model, ± fitting error
Method: (§4) Some of peptides (Supplementary Table 4) and all proteins except Atg40-6His were expressed in E. coli BL21 (DE3). Bacteria were cultured at 37 °C until OD600 became 0.8–1.0 and further cultured at 16 °C with 100 μM IPTG overnight. After centrifugation, the pellets were resuspended with 20 ml PBS with 0.5 mM EDTA and lysed by sonication for 10 min. After centrifugation, the supernatants were incubated with GST-accept resin (Nacalai tesque). After three times wash by PBS, the proteins were eluted with glutathione buffer (10 mM glutathione and 50 mM Tris pH 8.0). The buffer of the eluates was exchanged with PBS by a Bio-Scale Mini BioGel P-6 desalting column (Bio-Rad). After incubation with GST-fused HRV 3 C protease at 4 °C overnight, the samples were subjected to a GST-accept resin column to remove excised GST and the protease. RTN3^245–264-GABARAP was purified by cation-exchange chromatography using CM Sepharose FF column (GE Healthcare) with 500 mM MES pH 6.0 as buffer B and 50 mM MES pH 6.0 and 1 M NaCl as buffer C. The samples were further subjected to size-exclusion chromatography with 20 mM HEPES pH 6.8, 150 mM sodium chloride except for mCherry-Atg8-CC^tetramer (20 mM HEPES pH 6.8, 500 mM sodium chloride) using a Superdex 75 10/300 or Superdex 200 26/60 column. As described in Supplementary Table 4, the Atg40^237–252 M245A and Atg40^237–252 D243A D247A peptides were synthesized by Cosmo Bio, and the FAM134B^453–460 and SEC62^361–368 peptides were synthesized by BEX Co., Ltd. The Atg40^234–252 peptide and its variants were prepared using Liberty Blue peptide synthesizer (CEM Corporation). After dissolving these synthesized peptides in 300 μl water with ~10 μl ammonium hydroxide, they were subjected to size-exclusion chromatography with 20 mM HEPES pH 6.8 containing 150 mM sodium chloride using a Superdex 75 10/300 column.
Peptides used in ITC are listed in Supplementary Table 4. ITC experiments were performed using Microcal iTC200 calorimeter (Malvern Panalytical), with stirring at 1000 rpm at 25 °C. […]

[5] = target: LC3C WT (Homo sapiens, UniProt Q9BXW4); assay: ITC of peptides with LC3C; conditions: 25 °C, 0.5 mM peptide in syringe, LC3C WT in cell 10 times lower, single-site model, ± fitting error, read-out: Kd
Method: as §4
Peptides used in ITC are listed in Supplementary Table 4. ITC experiments were performed using Microcal iTC200 calorimeter (Malvern Panalytical), with stirring at 1000 rpm at 25 °C. Atg40, FAM134B, SEC62, and RTN3 peptides were prepared as injection samples from the syringe. Concentrations of FAM134B, SEC62, and RTN3 peptides were 0.5 mM, whereas those of Atg40^234–252 and Atg40^237–252 peptides were 2.0 and 1.8 mM, respectively. In total, 200 μl Atg8, LC3A, LC3B, LC3C, GABARAP, GABARAPL1, and GABARAPL2 with 10 times lower concentration than the syringe samples were filled in the cell. As an exception, 1.8 mM Atg8 was filled in the cell when 1.8 mM Atg40^237–252 D243A D247A was in a syringe. The titration involved 18 injections of 2 μl of the syringe sample at intervals of 120 s into a cell after one injection of 0.4 μl of syringe sample. […]

[6] = target: GABARAP WT (Homo sapiens, UniProt O95166); assay: ITC of ER-phagy receptor peptides with GABARAP; conditions: 25 °C, 0.5 mM peptide in syringe, GABARAP WT in cell, ± fitting error
Text: as §2, §3

Sequence of GABARAPL2 WT (P60520 whole entry): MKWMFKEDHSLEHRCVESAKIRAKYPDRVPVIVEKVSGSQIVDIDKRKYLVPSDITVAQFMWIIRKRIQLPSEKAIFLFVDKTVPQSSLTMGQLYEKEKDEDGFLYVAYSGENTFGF
Sequence of LC3C WT (Q9BXW4 whole entry): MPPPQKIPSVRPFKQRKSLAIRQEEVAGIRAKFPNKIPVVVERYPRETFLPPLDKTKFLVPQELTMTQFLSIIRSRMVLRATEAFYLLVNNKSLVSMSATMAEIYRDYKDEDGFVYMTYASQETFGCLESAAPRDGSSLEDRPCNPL
Sequence of GABARAPL1 WT (Q9H0R8 whole entry): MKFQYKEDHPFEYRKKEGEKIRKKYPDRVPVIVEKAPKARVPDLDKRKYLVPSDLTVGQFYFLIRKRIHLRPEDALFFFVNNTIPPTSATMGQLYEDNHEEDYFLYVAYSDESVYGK
Sequence of GABARAP WT (O95166 1-116): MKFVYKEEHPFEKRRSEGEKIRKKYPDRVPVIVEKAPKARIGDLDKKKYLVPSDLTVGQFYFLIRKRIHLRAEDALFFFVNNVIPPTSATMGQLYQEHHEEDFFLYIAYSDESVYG

| Compound | Kd [1] [nM] | Kd [2] [nM] | Kd [3] [nM] | Kd [4] [nM] | Kd [5] [nM] | N (site), stoichiometry of binding [6] |
| --- | --- | --- | --- | --- | --- | --- |
| CC[C@H](C)[C@H](NC(=O)[C@H](CCC(N)=O)NC(=O)[C@H](CC(=O)O)NC(=O)[C@H](CC(C)C)NC(=O)[C@H](CCC(=O)O)NC(=O)[C@H](CO)NC(=O)[C@H](CCC(N)=O)NC(=O)[C@H](CC(=O)O)NC(=O)[C@H](CC(C)C)NC(=O)[C@H](CC(C)C)NC(=O)[C@H](CCC(=O)O)NC(=O)[C@H](Cc1ccccc1)NC(=O)[C@H](CC(=O)O)NC(=O)[C@H](CC(=O)O)NC(=O)CNC(=O)[C@H](CCC(=O)O)NC(=O)[C@H](CCC(=O)O)NC(=O)[C@@H](NC(=O)[C@H](CC(=O)O)NC(=O)[C@@H](NC(=O)[C@H](CC(=O)O)NC(=O)[C@H](CCC(=O)O)NC(=O)[C@H](CCC(=O)O)NC(=O)[C@@H]1CCCN1C(=O)CN)[C@@H](C)O)[C@@H](C)O)C(=O)N[C@@H](CCC(=O)O)C(=O)N[C@@H](CO)C(=O)N[C@@H](CCC(=O)O)C(=O)N[C@@H](CC(C)C)C(=O)N[C@@H](Cc1ccc(O)cc1)C(=O)O [FAM134B^444-470 WT] | 300 ± 100 | 620 ± 160 | 120 ± 40 | 210 ± 30 | 1110 ± 350 | – |
| CSCC[C@H](NC(=O)[C@H](CCC(=O)O)NC(=O)[C@H](Cc1ccccc1)NC(=O)[C@H](CC(=O)O)NC(=O)[C@H](CC(N)=O)NC(=O)CNC(=O)[C@H](CC(N)=O)NC(=O)CNC(=O)[C@H](CO)NC(=O)[C@H](CO)NC(=O)[C@H](Cc1c[nH]cn1)NC(=O)[C@@H]1CCCN1C(=O)CN)C(=O)N[C@@H](C)C(=O)N[C@H](C(=O)N[C@@H](CCCCN)C(=O)N[C@@H](CCC(=O)O)C(=O)N[C@@H](CCC(=O)O)C(=O)N[C@@H](CC(C)C)C(=O)N[C@@H](CCC(=O)O)C(=O)N[C@@H](CCC(N)=O)C(=O)N[C@@H](CCC(N)=O)C(=O)N[C@H](C(=O)N[C@@H](CC(=O)O)C(=O)N[C@@H](Cc1ccc(O)cc1)C(=O)O)[C@@H](C)O)[C@@H](C)O [SEC62355-376 I366A] (H-GPHSSGNGNDFEMATKEELEQQTDY-OH) | – | – | – | – | – | 0.87 ± 0.10 |
